Here are results for two molecules from patent publication US10391111B2, “Composition for preventing or treating cervical cancer including gypenoside LXXV” (INTELLIGENT SYNTHETIC BIOLOGY CENTER, priority 2015, dated 2019).

The test system of the data set is HeLa cells. In words: MTT assay of HeLa cell viability (cytotoxic / anti-proliferative effect). The class given is cell-based. Conditions: for inhibition of HeLa cells: 50 μM; for effect on cell division: HeLa cells, 2.5 μM to 100 μM; for CC50: read-out: LC50 values against HeLa cells. As for the experimental part: HeLa cells were cultured in DMEM (Dulbecco's Modified Eagle's Medium) containing 10% FBS, 2 mmol/L of glutamine, 100 U/mL penicillin, and […] of streptomycin at 37° C. under 5% CO2 condition. An appropriate amount of GypLXXV in DMSO (dimethyl sulfoxide) was taken according to a final concentration as described and added to the culture medium.
In vitro chemosensitivity was measured by MTT (dimethyl thiazolyl-2,5-diphenyltetrazolium bromide) assay (CellTiter 96® Non-Radioactive Cell Proliferation Assay kit. Promega), 100 μl of HeLa cells were dispensed at a density of 10^4 cells per well in a 96-well plate, and incubated for 24 hrs. To measure anti-proliferative effects of GypLXXV. Rg3(S). Rb1 and GypXVII, 2.5 μM to 100 μM of the compound was diluted with a FBS-free medium, and added to each well. Thereafter, the cells treated with the compound were incubated at 37° C. for 48 hrs, and MTT was added to each well, followed by further incubation for 4 hrs. After aspiration of the culture medium, formazan formed from MTT was dissolved in 100 μl of solubilization/stop solution. Thereafter, optical density of each well was measured at a wavelength of 595 nm using a microplate reader. Results were expressed as LC50 values analyzed using a GraphPad Prism 5 program.
On the technique in general: Tetrazolium assays rely on reduction of a dye to a coloured formazan, in cell work by metabolically active cells.

SMILES strings stand for the structures. “Also recorded” adds a separate entry of the source. Read-outs that look alike come from different tables or passages of the source.

As to `CC(C)=CCC[C@](C)(O[C@@H]1O[C@H](CO[C@@H]2O[C@H](CO)[C@@H](O)[C@H](O)[C@H]2O)[C@@H](O)[C@H](O)[C@H]1O)[C@H]1CC[C@]2(C)[C@@H]1[C@H](O)C[C@@H]1[C@@]3(C)CC[C@H](O)C(C)(C)[C@@H]3CC[C@]12C` [GypLXXV, gypenoside LXXV], the “effect on cell division” value is listed as “decreased cell division in a dose-dependent manner”. Also, where the note is “48 hrs”, the “inhibition of HeLa cells” value is “almost all HeLa cells were inhibited”. The “anti-cancer / anti-proliferative effect compared with the other compounds (FIG. 2)” value (HeLa cell viability, 48 hrs) is “anti-proliferative activity similar to that of Rg3(S); also recorded: higher anti-cancer effects than those of Rb1 or GypXVII”. For the setting “Homo sapiens, HeLa, 48 h”, the CC50 came out at 29.9 µM.
Regarding `CC(C)=CCC[C@](C)(O)[C@H]1CC[C@]2(C)[C@@H]1[C@H](O)C[C@@H]1[C@@]3(C)CC[C@H](O[C@@H]4O[C@H](CO)[C@@H](O)[C@H](O)[C@H]4O[C@@H]4O[C@H](CO)[C@@H](O)[C@H](O)[C@H]4O)C(C)(C)[C@@H]3CC[C@]12C` [Rg3(S), 20(S)-ginsenoside-Rg3, reference compound], the “effect on cell division” value is given as “decreased cell division in a dose-dependent manner”. Further, where the note is “48 hrs”, the “inhibition of HeLa cells” value is reported as “almost all HeLa cells were inhibited”. For the setting “MTT assay, 48 hrs incubation, 2.5 μM to 100 μM compound, FBS-free medium”, the CC50 turned out to be 23.5 µM.
